Drawing on BindingDB's records for doi:10.1016/s0891-0618(03)00032-2 (University of Michigan, 2003), this text covers Ki for four compounds.

Assay [1] concerns the target Mu-type opioid receptor (Rattus norvegicus, UniProt P33535).
Assay [2] addresses Delta-type opioid receptor (Rattus norvegicus, UniProt P33533).
For assay [3], the target named is Kappa-type opioid receptor (Rattus norvegicus, UniProt P34975).
Assay [4] addresses Nociceptin receptor (Rattus norvegicus, UniProt P35370).

pKi: −log10 of the molar value.

Sequence of Delta-type opioid receptor (P33533 whole entry): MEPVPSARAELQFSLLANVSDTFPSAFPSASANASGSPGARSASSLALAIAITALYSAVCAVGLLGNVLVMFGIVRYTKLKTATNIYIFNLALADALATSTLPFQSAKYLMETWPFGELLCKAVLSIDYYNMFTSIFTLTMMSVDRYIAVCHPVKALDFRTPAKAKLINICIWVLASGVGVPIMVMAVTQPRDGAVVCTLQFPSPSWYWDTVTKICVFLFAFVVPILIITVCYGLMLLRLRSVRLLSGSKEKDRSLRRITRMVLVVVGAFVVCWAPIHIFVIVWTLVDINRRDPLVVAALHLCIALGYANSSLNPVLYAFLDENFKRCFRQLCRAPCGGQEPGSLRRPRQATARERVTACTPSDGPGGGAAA
Sequence of Kappa-type opioid receptor (P34975 whole entry): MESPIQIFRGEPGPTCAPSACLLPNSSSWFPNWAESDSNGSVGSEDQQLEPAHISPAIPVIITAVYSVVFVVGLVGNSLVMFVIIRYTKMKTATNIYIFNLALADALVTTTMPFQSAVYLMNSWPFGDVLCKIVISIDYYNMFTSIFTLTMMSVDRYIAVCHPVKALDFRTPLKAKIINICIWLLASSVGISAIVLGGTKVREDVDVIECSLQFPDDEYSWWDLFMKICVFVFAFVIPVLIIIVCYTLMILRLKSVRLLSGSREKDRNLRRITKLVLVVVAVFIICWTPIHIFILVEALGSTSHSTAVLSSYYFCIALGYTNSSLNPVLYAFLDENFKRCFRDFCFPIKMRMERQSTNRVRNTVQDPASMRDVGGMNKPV
Sequence of Mu-type opioid receptor (P33535 whole entry): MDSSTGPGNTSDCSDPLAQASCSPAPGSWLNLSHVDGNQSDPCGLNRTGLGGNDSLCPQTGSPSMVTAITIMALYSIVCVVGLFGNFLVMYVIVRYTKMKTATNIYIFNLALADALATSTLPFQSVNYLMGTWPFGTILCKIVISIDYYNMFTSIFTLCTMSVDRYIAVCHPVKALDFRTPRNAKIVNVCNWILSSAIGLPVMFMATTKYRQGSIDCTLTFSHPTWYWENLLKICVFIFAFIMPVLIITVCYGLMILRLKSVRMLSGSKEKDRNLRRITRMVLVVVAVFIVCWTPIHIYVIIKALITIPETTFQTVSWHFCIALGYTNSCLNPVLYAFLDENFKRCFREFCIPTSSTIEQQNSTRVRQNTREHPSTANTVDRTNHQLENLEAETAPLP
Sequence of Nociceptin receptor (P35370 whole entry): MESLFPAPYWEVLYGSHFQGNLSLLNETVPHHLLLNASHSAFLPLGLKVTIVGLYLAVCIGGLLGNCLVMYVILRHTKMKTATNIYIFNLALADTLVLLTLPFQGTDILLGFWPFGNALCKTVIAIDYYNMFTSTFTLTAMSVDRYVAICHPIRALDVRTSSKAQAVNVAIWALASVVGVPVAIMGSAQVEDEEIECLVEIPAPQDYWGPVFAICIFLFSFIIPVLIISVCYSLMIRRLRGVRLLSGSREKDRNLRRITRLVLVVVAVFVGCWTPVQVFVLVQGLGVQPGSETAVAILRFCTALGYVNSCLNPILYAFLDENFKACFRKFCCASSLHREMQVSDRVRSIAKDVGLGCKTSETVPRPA

One may read the pKi as the Ki on a negative log10 scale, so that one unit is a factor of ten. Consider `CCC12CCN(CC3CC3)C(C(=O)c3ccc(O)cc31)C2C` (centres undefined) [EKC], for which the pKi in assay [1] was 8.71; in assay [2], 8.61; in assay [3] it was 8.67.
The matching figures for `CC(C)C[C@H](NC(=O)[C@H](CCCCN)NC(=O)[C@H](CCCN=C(N)N)NC(=O)[C@H](C)NC(=O)[C@H](CO)NC(=O)[C@H](CCCCN)NC(=O)[C@H](CCCN=C(N)N)NC(=O)[C@H](C)NC(=O)CNC(=O)[C@@H](NC(=O)[C@H](Cc1ccccc1)NC(=O)CNC(=O)CNC(=O)[C@@H](N)Cc1ccccc1)[C@@H](C)O)C(=O)N[C@@H](C)C(=O)N[C@@H](CC(N)=O)C(=O)N[C@@H](CCC(N)=O)C(=O)O` [OFQ 1-17]: below 5.00, below 5.00 and below 5.00.
With H-FSEFMRQYLVLSMQSSQ-OH [OFQ II 1-17], the negative-log Ki (pKi) in assay [1], in assay [4], in assay [2] and in assay [3] was below 5.00 each time.
Regarding “H-FSEFMRQYLVLSMQSSQRRRTLHQNGNV-NH2 [NSC_0]”, the negative logarithm of the Ki (pKi) in assay [1], in assay [4], in assay [2] and in assay [3] was below 5.00 throughout.
